# Test: The equilibrium constant pair at a pH of 7.0 and temperature of 25 degree Centigrade
# Settings: pH 7
smiles,measurement,value
CN1C(=O)[C@]23CC4=CC=C[C@H](O)[C@H]4N2C(=O)[C@@]1(CO)SS3.N[C@@H](CS)C(=O)O [GLIOTOXIN/CYSTEINE],Keq,400 M⁻¹

# Reference: ChEMBL document CHEMBL1134188, “Evidence for gliotoxin-glutathione conjugate adducts” (Bioorg Med Chem Lett, 2001)
